Key:
[1] = system: bone marrow cells; test: Bone marrow cell growth stimulation, 4 day culture without added cytokines, cell count; assay type: cell-based; conditions: 10,000 bone marrow cells per well at start, IMDM, no growth factors, control 10,000 cells
Method: Freshly isolated bone marrow cells were isolated and 10,000 cells per well were incubated in 96 microtiter plates in CellGro Iscove's Modified Dulbecco's Medium (IMDM) and with or without (control) the indicated concentrations of Pro-boroPro for 4 days. At the end of this incubation period, the cells were counted under the microscope. The cultures without Pro-boroPro contained 10,000 cells at the end of 4 days. The cultures containing Pro-boroPro had 53,000 cells at 10^−6M, 38,000 cells at 10^−8M and 42,000 cells at 10^−10 M. The cultures containing a growth factor mix (GF) contained 82,000 cells. Growth factors were supplied in OPITEN® Giant Cell Tumor-conditioned medium (IGEN)
Cultures were set up as described in the legend to FIG. 1 except that Lys-boroPro and the homoconjugate were used, and incubated for 4 days.
• 1. Obtain bone marrow or umbilical cord blood in heparinized (green top) tube. Can be stored at room temperature until use within 48 hours. • 2. Mix marrow/blood 1:1 with phosphate-buffered saline, pH 7.4(PBS) that has been stored at 4° C. • 3. Carefully layer blood-PBS mixture on a 2× volume quantity of Histopaque (Sigma) that has been stored at 4° C. • 4. Centrifuge at 400 g×20 minutes at 37° C. • 5. Carefully collect cells at interface and wash ×2 in cold PBS. • 6. Count viable cells using trypan blue. • 7. Set up cells as 1 ml cultures in plastic culture tubes (or 96 well or 24 well microtiter plates) at 10^4 cells/ml in CellGro Iscove's Modified Dulbecco's medium (Meditech) containing kanamycin (5 ug/ml), desired concentration of Xaa-boroPro or other compound of the invention, and the absence or presence of Giant Cell Tumor-Conditioned Medium (GCT-CM, Origen) as source of growth factors. Xaa-boroPro or other compounds of the invention should be diluted to medium and added to culture only after cells are in culture tube. • 8. Cells are cultured at 37° C. in a moist air incubator containing 5% CO2. • 9. At desired time, an aliquot of cells are removed and counted. • 10. […]

[2] = system: Umbilical cord blood cells; test: Bulk umbilical cord blood, total cell counts after 4 day incubation; assay type: cell-based; conditions: control culture 0.2×10^6 cells
Method: (§1) Umbilical cord blood cells were incubated under essentially the same conditions as described in the legend to FIG. 1, except that Val-boroPro was used as stimulant at the indicated concentrations. After 4 day incubation: • A: Bulk Umbilical Cord Blood; Total Cell Counts. Control culture: 0.2×10^6 cells; Growth factors 5×10^6 cells; Val-boroPro: 3×10^6 (10^−6M); 3×10^6 (10^−8M); 4×10^6 ([…]). • B: CD34+ isolated cells: CD34+ cells were isolated using CD34 mAb coupled beads for positive selection. Cell preparation contained 98% CD34+ cells. After 4 days of incubation the culture containing 10^−10M Val-boroPro contained 8.5×10^6 cells, compared to 0.6×10^6 cells in the control and 4×10^6 cells in the incubation with growth factors.
(§2) • 1. Obtain bone marrow or umbilical cord blood in heparinized (green top) tube. Can be stored at room temperature until use within 48 hours. • 2. Mix marrow/blood 1:1 with phosphate-buffered saline, pH 7.4(PBS) that has been stored at 4° C. • 3. Carefully layer blood-PBS mixture on a 2× volume quantity of Histopaque (Sigma) that has been stored at 4° C. • 4. Centrifuge at 400 g×20 minutes at 37° C. • 5. Carefully collect cells at interface and wash ×2 in cold PBS. • 6. Count viable cells using trypan blue. • 7. Set up cells as 1 ml cultures in plastic culture tubes (or 96 well or 24 well microtiter plates) at 10^4 cells/ml in CellGro Iscove's Modified Dulbecco's medium (Meditech) containing kanamycin (5 ug/ml), desired concentration of Xaa-boroPro or other compound of the invention, and the absence or presence of Giant Cell Tumor-Conditioned Medium (GCT-CM, Origen) as source of growth factors. Xaa-boroPro or other compounds of the invention should be diluted to medium and added to culture only after cells are in culture tube. • 8. Cells are cultured at 37° C. in a moist air incubator containing 5% CO2. • 9. At desired time, an aliquot of cells are removed and counted. • 10. Counting can be performed under the microscope (direct) or by using the MTT assay (colorimetric assay).

[3] = system: CD34+ isolated cells; test: CD34+ cells isolated from umbilical cord blood, 4 day culture: cell number and percent CD34+ remaining; assay type: cell-based, human; conditions: 10^−10M; isolated CD34+ cells (98% CD34+); control 0.6×10^6 cells
Method: as §1
C: Percent of CD34+ cells remaining after 4 day culture: Cultures incubated with Val-boroPro contained between 10 and 15% of CD34+ cells after 4 day culture. Cultures incubated with Growth Factors had only 4% of CD34+ cells remaining (panel b).
• 1. Obtain bone marrow or umbilical cord blood in heparinized (green top) tube. Can be stored at room temperature until use within 48 hours. • 2. […] Carefully layer blood-PBS mixture on a 2× volume quantity of Histopaque (Sigma) that has been stored at 4° C. • 4. […] At desired time, an aliquot of cells are removed and counted. • 10. […]

[4] = system: Isolated CD34+ cells; test: Isolated CD34+ cells (98% purity) of bone marrow, 4 day culture: growth stimulation and percent CD34+ remaining; assay type: cell-based, human
Method: as §2

Row | SMILES | number of cells at the end of 4 days ([1]; 10^−6M) | number of cells at the end of 4 days ([1]; 10^−8M) | number of cells at the end of 4 days ([1]; 10^−10 M) | Total Cell Counts after 4 day incubation ([2]; 10^−6M) | Total Cell Counts after 4 day incubation ([2]; 10^−8M) | Total Cell Counts after 4 day incubation ([2]; 10^−M (so in the source)) | number of cells after 4 days of incubation [3] | increase in stimulation of cellular growth over that in control cultures ([4]; 4 day culture, concentration not given) | Percent of CD34+ cells remaining in culture after a 4 day incubation period ([4]; isolated bone marrow CD34+ cells, control 63%) [%]
1 | O=C(C1CCCN1)N1CCCC1B(O)O (stereo not drawn) [Pro-boroPro] | 53,000 cells | 38,000 cells | 42,000 cells | – | – | – | – | – | –
2 | CC(C)[C@H](N)C(=O)N1CCC[C@H]1B(O)O [Val-boroPro] | – | – | – | 3×10^6 | 3×10^6 | 4×10^6 | 8.5×10^6 cells | up to 20 fold | 43
